Reference: ChEMBL document CHEMBL1201862, “PubChem BioAssay data set” (2004)
Activity calls are given as the source filed them.

How the values were obtained:
[1] = molecular target: T1, Corticotropin-releasing factor receptor 2/Corticotropin-releasing factor-binding protein (Homo sapiens, UniProt P24387+Q13324); assay: activators of CRF receptor 2 with binding protein – uHTS hits, confirmation (AID 602473); format: functional; settings: read-out: EC50_Mean
T1 sequence (Q13324 whole entry): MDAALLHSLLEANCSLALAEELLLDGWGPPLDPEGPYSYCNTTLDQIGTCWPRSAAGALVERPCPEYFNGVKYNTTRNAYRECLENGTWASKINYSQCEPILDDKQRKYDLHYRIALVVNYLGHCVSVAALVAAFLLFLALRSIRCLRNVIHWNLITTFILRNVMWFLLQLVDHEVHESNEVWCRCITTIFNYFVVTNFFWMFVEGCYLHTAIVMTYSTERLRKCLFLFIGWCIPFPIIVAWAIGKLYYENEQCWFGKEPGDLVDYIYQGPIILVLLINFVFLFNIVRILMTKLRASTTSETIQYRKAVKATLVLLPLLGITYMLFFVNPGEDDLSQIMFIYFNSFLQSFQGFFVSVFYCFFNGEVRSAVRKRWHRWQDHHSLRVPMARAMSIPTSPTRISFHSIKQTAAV
T1 sequence (P24387 whole entry): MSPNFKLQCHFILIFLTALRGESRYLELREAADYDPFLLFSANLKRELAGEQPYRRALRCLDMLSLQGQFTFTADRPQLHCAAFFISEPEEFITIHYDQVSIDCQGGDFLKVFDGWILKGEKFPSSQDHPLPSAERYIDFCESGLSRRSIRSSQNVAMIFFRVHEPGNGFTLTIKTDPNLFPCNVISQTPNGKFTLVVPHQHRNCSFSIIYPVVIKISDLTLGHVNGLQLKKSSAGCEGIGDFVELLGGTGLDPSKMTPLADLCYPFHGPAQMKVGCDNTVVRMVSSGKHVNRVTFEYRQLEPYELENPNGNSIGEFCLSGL

[2] = blockers of CRF-binding protein–CRF-R2 complex – cell-based, uHTS hits, 384-well, dose response (AID 651639); format: functional, Homo sapiens; settings: read-out: IC50_Mean
[3] = molecular target: T1, Corticotropin-releasing factor receptor 2/Corticotropin-releasing factor-binding protein; assay: Dose Response confirmation of uHTS hits for small molecule antagonists of the CRF-binding protein and CRF-R2 receptor complex.; format: functional; settings: read-out: IC50_Mean
[4] = viability of HCT116 lacking mutant beta-catenin – cell-based, human colon tumor, dose response (AID 1045); format: functional;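 note: HCT116 colon tumor cells with beta catenin knocked out; cells exposed to compound for 60 hours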
[5] = viability of PTEN-deleted HCT116 cells – cell-based, HCT116 PTEN knockout, dose response (AID 1047); format: functional;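 note: HCT116 colon tumor cells with PTEN knocked out; cells exposed to compound for 60 hours before readout; potency for loss of cell viability measured by luminescence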
[6] = Luminescence Cell-Based Dose Retest to Confirm Inhibitors of Cancer Stem Cells. [Related pubchem assays (depositor defined):AID2717, AID2721]; format: functional; settings: Homo sapiens
Vero = assay: cells; format: functional; settings: Chlorocebus sabaeus
[7] = viability of uninfected HEp-2 cells – cell-based, HTS, cytotoxicity control for RSV inhibitor project, dose response (AID 2410); format: functional; settings: human respiratory syncytial virus
[8] = A Cell Based Secondary Assay To Explore Cytotoxicity of Compounds that Sensitize Mycobacterium Tuberculosis to Beta-Lactam Antibiotics.; format: functional
Protein skinhead-1 = molecular target: T2, Protein skinhead-1 (Caenorhabditis elegans, UniProt P34707); format: functional
T2 sequence (P34707 whole entry): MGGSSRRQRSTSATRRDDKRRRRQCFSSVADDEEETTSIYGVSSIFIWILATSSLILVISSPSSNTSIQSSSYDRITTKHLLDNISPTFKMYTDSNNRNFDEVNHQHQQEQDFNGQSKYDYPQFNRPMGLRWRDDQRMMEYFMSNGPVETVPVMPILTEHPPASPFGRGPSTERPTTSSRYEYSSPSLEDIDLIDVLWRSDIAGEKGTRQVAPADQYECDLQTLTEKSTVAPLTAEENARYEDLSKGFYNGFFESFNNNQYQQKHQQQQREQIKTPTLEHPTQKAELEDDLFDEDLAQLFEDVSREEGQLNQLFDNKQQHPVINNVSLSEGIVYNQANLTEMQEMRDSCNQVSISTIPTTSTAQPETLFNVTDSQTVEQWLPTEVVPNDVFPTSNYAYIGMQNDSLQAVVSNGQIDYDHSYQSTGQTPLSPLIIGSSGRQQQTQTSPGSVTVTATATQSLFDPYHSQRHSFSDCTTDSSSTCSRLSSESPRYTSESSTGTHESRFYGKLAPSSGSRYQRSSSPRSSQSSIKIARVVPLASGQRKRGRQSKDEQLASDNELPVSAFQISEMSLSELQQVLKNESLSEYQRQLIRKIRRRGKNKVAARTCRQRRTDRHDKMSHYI

[9] = molecular target: T3, Sentrin-specific protease 7 (Homo sapiens, UniProt Q9BQF6); format: functional;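 note: Luminescence-based dose-response confirmation of ultra-high-throughput screening hits, measuring inhibition of SENP7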
T3 sequence (Q9BQF6 whole entry): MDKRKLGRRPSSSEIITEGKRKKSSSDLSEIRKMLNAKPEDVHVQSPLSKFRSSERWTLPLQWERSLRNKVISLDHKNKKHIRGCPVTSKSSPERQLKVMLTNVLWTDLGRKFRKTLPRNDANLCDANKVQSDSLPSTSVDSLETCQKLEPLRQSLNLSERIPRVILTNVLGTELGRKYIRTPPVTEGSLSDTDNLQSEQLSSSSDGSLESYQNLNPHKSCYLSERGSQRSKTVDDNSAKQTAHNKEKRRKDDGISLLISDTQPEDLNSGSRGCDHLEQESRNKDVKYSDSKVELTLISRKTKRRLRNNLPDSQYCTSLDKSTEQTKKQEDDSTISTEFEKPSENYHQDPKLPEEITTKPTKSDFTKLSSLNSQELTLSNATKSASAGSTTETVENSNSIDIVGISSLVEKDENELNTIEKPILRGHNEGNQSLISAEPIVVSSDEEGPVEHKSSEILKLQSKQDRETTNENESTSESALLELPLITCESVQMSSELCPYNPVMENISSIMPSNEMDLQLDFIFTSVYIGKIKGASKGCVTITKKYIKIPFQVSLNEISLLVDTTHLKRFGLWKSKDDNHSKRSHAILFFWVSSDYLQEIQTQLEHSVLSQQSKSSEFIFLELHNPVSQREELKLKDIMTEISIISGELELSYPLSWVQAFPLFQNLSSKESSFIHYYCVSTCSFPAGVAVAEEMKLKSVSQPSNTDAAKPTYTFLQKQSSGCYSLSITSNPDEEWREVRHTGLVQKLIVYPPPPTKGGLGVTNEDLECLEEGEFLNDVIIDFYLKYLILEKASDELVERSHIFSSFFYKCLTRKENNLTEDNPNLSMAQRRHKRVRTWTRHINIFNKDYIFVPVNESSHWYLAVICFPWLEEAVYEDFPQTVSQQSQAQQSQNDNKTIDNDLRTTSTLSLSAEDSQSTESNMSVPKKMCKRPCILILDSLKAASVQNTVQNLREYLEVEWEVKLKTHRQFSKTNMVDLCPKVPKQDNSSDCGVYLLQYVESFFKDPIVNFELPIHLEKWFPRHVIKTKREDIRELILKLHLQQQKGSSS

[10] = molecular target: T4, Sentrin-specific protease 6 (Homo sapiens, UniProt Q9GZR1); format: functional;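 note: Luminescence-based dose-response confirmatory assay of SENP6 inhibition, following up an ultra-high-throughput screen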
T4 sequence (Q9GZR1 whole entry): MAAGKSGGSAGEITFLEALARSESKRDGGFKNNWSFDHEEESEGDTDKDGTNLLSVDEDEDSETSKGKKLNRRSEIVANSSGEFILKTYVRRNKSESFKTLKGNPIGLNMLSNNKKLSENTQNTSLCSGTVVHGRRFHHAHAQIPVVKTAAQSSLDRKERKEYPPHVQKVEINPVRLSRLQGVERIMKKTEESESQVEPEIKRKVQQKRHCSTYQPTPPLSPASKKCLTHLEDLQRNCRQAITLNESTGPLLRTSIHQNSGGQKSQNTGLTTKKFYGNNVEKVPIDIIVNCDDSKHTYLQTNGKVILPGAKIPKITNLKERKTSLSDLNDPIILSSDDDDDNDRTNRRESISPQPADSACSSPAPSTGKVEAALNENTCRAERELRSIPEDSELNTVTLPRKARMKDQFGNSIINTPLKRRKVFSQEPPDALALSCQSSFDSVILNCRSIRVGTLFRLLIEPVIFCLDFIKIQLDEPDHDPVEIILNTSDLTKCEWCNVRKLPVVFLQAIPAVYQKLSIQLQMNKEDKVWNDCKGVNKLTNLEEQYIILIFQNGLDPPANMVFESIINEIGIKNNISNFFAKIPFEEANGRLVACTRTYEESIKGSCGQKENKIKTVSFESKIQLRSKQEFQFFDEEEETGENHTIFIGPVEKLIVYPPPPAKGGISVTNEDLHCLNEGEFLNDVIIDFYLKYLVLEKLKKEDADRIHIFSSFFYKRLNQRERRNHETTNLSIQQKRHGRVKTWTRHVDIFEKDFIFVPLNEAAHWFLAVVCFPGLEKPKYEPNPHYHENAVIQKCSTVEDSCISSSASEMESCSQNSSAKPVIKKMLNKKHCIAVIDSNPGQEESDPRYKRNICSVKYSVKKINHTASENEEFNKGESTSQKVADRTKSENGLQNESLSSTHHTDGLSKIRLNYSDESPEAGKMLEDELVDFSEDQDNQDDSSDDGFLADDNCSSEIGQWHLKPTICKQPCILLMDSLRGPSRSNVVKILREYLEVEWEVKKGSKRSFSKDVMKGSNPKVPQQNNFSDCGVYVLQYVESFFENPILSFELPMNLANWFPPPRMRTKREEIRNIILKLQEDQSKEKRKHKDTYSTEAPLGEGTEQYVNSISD

[11] = molecular target: T5, Sentrin-specific protease 8 (Homo sapiens, UniProt Q96LD8); format: functional;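 note: luminescence read-out of SENP8 inhibition, dose-response confirmation following an ultra-high-throughput screen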
T5 sequence (Q96LD8 whole entry): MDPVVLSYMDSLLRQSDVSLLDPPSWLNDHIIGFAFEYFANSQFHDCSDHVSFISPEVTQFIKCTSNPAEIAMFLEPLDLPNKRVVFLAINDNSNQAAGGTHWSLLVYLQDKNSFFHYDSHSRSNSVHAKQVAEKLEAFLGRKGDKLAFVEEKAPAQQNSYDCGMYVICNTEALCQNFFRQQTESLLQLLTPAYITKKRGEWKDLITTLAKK

Caspase-3 = molecular target: T6, Caspase-3 (Homo sapiens, UniProt P42574); format: functional;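 note: Dose-response selectivity test against caspase-3 for candidate inhibitors of sentrin-specific proteases (SENPs)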
T6 sequence (P42574 whole entry): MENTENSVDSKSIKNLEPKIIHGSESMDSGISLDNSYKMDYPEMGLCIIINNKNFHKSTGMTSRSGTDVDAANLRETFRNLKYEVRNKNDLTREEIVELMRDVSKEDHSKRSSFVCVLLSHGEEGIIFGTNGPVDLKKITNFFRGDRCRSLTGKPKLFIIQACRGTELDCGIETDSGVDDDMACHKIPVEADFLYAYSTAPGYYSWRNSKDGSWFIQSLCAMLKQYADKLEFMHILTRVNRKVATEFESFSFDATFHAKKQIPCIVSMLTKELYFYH

[12] = NIH-3T3 fibroblast cytotoxicity, dose response, cytotoxicity control, cell-based, fluorescence, Alamar Blue, secondary assay (AID 2327); format: functional;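 note: NIH-3T3 mouse fibroblasts cultured with fluconazole at 8 µg/mL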
[13] = luciferase reporter signal suppression in cells – H4 neuroglioma cells, luminescence, dose response (AID 1990); format: functional, cell-based
[14] = Luminescence Cell-Based Dose Response HTS to Identify Inhibitors of 5'UTR Stem-Loop Driven Prion Protein mRNA Translation in H4 Neuroglioblastoma Cells. [Related pubchem assays: 1827 (Project Summary), 1813 (Primary HTS)]; format: functional
[15] = alpha-synuclein stem-loop luciferase translation blockers – H4 neuroglioma cells, luminescence, confirmation (AID 1988); format: functional, cell-based
[16] = Trypanosoma cruzi growth suppression in host cells – NIH3T3 host cells, beta-gal luminescence, confirmation (AID 2044); format: functional, cell-based;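 note: intracellular parasites grown in NIH/3T3 mouse fibroblasts as host cells; luminescent beta-galactosidase reporter signal from transgenic T. cruzi replicating inside host cells; inhibitors lower the luminescence signal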
[17] = fluconazole-exposed Candida albicans growth modulators – fluorescence, retest, confirmation (AID 2467); format: functional, cell-based
[18] = NIH3T3 cell viability loss – ATP luminescence, mouse fibroblasts, counter-screen, dose response (AID 2010); format: functional, cell-based;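 note: cells exposed to compound for about 90 hours before reading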
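Throughout, for AC50: cells exposed to compound for roughly 70 hours or longer before luminescence read.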

COc1ccc([N+](=O)[O-])cc1NC(=O)c1ccccc1SC
EC50 [1]: > 53 µM (inactive) | IC50 [2]: 1.79 µM (active) | IC50 [3]: 23 µM (active)

CCN1CCN(c2cc(-c3ccccc3)nc3cc(-c4cccc(F)c4)nn23)CC1
EC50 [4]: 11.1 µM (active) | EC50 [5]: 13.8 µM (active) | AC50 [6]: 5.42 µM (active)

CCOc1ccc(/C=C/C(O)=C2/C(=O)N(C)C3(C)CC2c2ccccc2O3)cc1OC (stereo unspecified)
CC50 (Vero): 11.6 µM (active) | CC50 [7]: 2.92 µM (active) | AC50 [6]: 2.44 µM (active)

COc1ccc2oc(=N)c(C(=O)Nc3ccccc3)cc2c1
CC50 [8]: > 40 µM (active)

CN(C)C1=NP(N(C)C)(N(C)C)=NC(c2ccccc2)=N1
EC50 [1]: > 53 µM (inactive) | IC50 [2]: > 20 µM (inactive) | IC50 [3]: < 0.368 µM (active)

Nc1ccccc1Oc1c(F)c(F)c(Oc2ccccc2N)c(F)c1F
EC50 [1]: > 53 µM (inactive) | IC50 [2]: > 20 µM (inactive) | IC50 [3]: 4.08 µM (active)

O=C(Nc1cccc(S(=O)(=O)N2CCCCC2)c1)Nc1ccc(Cl)cc1Cl
EC50 [4]: 8.76 µM (active) | EC50 [5]: 8.66 µM (active)

c1cc2c(cc1C1CCCCC1)c1c3n2CCN=C3CCC1
CC50 (Vero): > 25 µM (active)

N#Cc1cccc(NC(=O)Nc2cccs2)c1
EC50 [1]: > 53 µM (inactive) | IC50 [2]: > 20 µM (inactive) | IC50 [3]: < 0.368 µM (active)

COCCn1c(=O)[nH]c(=O)c2c1nc(-c1ccc(-c3ccc(Cl)cc3[N+](=O)[O-])o1)n2Cc1ccccc1
EC50 [4]: 19.4 µM (active) | EC50 [5]: 17.3 µM (active)

COC(=O)CNC(c1ccccc1Cl)c1cc(Br)ccc1NC(=O)CCN1CCOCC1 (stereo unspecified)
IC50 (Protein skinhead-1): > 100 µM (inactive) | CC50 [8]: > 40 µM (active)

COc1cc(NC(=O)c2cccc(Br)c2)nc(OC)n1
IC50 [9]: 8.86 µM (active) | IC50 [10]: 31 µM (active) | IC50 [11]: 35.7 µM (active) | IC50 (Caspase-3): 20.5 µM (active)

CCCOc1ccc(C(=O)CCN2CCCCC2)cc1
CC50 [8]: > 40 µM (active)

O=C(/C=C/c1ccccc1)c1ccc2ccccc2c1
CC50 (Vero): > 25 µM (active)

Cc1cccc(C(=O)O/N=C/c2c(N3CCOCC3)n(C)c3ccccc23)c1
EC50 [12]: > 150 µM (inactive) | EC50 [4]: 2.35 µM (active) | EC50 [13]: > 120 µM (not active) | EC50 [14]: 10.8 µM (active) | EC50 [15]: 9.98 µM (active) | EC50 [16]: 3.22 µM (active) | EC50 [5]: 2.47 µM (active) | EC50 [17]: 0.729 µM (active) | EC50 [18]: 8.96 µM (active)
